In ChEMBL document CHEMBL5291721, “A preclinical secondary pharmacology resource illuminates target-adverse drug reaction associations of marketed drugs” (Nat Commun, 2023):
One block for each compound: values may come before it.

Legend:
[1] = biological target: T1, Alpha-1A adrenergic receptor (Homo sapiens, UniProt P35348)
T1 sequence (P35348 whole entry): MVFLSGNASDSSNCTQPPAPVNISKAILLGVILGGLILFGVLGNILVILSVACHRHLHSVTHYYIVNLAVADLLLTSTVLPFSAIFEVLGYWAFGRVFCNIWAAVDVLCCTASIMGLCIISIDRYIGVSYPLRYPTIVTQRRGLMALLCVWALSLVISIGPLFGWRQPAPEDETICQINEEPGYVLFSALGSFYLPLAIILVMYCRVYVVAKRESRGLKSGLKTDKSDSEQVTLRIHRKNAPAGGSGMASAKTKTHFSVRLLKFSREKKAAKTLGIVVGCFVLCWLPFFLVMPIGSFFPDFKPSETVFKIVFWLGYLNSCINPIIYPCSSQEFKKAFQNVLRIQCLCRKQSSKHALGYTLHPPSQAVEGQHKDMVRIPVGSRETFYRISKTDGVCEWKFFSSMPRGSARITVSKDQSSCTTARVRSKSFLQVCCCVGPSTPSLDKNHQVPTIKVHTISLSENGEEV

[2] = biological target: Sodium channel protein type 5 subunit alpha (Homo sapiens, UniProt Q14524); type: functional, cell-based
[3] = biological target: T2, Peroxisome proliferator-activated receptor gamma (Homo sapiens, UniProt P37231); type: functional
T2 sequence (P37231 whole entry): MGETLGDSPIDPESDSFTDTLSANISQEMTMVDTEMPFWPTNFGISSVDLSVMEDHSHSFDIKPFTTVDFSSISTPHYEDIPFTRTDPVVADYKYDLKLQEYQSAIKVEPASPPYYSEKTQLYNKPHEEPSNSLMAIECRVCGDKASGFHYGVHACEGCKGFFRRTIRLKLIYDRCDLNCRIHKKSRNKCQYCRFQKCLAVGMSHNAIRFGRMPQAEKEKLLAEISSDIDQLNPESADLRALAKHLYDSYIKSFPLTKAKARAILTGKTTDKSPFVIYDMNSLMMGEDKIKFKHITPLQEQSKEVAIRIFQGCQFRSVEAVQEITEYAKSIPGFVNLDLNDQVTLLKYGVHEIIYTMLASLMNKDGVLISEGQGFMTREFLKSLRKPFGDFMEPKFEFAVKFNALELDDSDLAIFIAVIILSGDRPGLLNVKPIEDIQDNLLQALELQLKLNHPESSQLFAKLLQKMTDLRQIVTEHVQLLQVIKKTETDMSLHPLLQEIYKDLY

[4] = biological target: T2, Peroxisome proliferator-activated receptor gamma; type: functional; remark: listed apart in the source
[5] = biological target: T3, Alpha-2A adrenergic receptor (Homo sapiens, UniProt P08913)
T3 sequence (P08913 whole entry): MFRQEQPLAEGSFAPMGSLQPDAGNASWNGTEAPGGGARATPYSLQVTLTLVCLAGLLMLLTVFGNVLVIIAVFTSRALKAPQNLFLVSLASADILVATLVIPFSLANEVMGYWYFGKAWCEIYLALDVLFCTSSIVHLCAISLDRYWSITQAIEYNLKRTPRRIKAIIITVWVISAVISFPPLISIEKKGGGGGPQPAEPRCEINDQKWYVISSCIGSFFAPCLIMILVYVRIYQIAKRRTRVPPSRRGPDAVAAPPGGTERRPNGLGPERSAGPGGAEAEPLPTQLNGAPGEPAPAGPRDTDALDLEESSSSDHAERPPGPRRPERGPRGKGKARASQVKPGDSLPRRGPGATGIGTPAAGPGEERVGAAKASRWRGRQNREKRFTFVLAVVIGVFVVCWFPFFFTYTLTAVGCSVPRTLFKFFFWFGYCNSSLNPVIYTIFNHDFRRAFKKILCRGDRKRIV

[6] = biological target: Beta-3 adrenergic receptor (Homo sapiens, UniProt P13945)
[7] = biological target: T4, Muscarinic acetylcholine receptor M2 (Homo sapiens, UniProt P08172)
T4 sequence (P08172 whole entry): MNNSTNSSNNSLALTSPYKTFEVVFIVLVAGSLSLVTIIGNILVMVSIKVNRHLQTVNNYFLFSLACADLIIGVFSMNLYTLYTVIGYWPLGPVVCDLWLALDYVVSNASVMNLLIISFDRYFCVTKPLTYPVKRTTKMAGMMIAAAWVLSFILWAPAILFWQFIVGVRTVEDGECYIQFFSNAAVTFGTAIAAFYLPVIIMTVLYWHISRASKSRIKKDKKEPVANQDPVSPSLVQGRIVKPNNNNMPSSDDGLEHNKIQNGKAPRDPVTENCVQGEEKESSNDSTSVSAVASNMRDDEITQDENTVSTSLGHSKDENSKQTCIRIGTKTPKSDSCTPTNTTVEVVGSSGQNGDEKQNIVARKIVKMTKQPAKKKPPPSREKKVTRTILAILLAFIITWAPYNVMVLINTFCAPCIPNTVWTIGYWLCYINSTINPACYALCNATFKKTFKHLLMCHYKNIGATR

[8] = biological target: 5-hydroxytryptamine receptor 2B (Homo sapiens, UniProt P41595)
[9] = biological target: T5, 5-hydroxytryptamine receptor 1A (Homo sapiens, UniProt P08908)
T5 sequence (P08908 whole entry): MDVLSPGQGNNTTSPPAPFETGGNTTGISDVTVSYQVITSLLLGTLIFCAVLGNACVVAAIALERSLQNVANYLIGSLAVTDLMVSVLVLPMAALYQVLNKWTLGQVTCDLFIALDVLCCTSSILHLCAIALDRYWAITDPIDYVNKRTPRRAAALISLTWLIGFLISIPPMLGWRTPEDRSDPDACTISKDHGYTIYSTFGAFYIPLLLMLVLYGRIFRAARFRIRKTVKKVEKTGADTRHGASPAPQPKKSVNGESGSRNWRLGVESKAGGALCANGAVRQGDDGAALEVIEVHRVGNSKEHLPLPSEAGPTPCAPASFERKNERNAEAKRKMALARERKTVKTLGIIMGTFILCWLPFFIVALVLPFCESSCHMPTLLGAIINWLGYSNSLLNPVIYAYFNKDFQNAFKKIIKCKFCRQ

D(1A) dopamine receptor = D(1A) dopamine receptor (Homo sapiens, UniProt P21728)
[10] = biological target: Gamma-aminobutyric acid receptor subunit alpha-1/alpha-2/beta-2/gamma-2 (Homo sapiens, UniProt P14867+P18507+P47869+P47870); type: functional, cell-based
Histamine H1 receptor [11] = biological target: T6, Histamine H1 receptor (Homo sapiens, UniProt P35367); type: functional, cell-based
Histamine H1 receptor [12] = biological target: T6, Histamine H1 receptor; type: functional, cell-based; remark: listed apart in the source
Further: assay procedure not described here.

Beta-3 adrenergic receptor, sequence (P13945 whole entry): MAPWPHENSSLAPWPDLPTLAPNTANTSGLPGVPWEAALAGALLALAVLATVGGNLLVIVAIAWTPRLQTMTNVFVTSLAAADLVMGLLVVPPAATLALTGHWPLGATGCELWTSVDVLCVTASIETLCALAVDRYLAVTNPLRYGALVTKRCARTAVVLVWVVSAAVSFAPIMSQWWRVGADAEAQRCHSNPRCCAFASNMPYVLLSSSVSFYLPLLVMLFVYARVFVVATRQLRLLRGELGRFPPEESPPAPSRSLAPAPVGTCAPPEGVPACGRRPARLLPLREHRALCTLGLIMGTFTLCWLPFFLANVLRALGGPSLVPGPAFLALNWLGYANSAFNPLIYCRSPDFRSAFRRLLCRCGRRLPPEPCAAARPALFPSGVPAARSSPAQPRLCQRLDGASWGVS
T6 sequence (P35367 whole entry): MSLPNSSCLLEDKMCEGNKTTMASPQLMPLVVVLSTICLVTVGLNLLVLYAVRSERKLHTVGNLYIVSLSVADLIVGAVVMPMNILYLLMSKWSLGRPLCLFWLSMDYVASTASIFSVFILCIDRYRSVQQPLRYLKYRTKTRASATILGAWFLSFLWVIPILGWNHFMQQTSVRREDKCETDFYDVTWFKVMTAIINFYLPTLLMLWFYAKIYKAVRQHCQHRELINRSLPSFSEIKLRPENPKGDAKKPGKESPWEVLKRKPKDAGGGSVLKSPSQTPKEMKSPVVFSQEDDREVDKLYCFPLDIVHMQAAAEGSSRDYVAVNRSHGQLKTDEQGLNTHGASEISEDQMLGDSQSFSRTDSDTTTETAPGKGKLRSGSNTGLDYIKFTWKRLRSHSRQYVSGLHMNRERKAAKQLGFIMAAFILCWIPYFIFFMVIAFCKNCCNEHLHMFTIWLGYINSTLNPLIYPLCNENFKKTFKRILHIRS
Gamma-aminobutyric acid receptor subunit alpha-1/alpha-2/beta-2/gamma-2, sequence (P14867 whole entry): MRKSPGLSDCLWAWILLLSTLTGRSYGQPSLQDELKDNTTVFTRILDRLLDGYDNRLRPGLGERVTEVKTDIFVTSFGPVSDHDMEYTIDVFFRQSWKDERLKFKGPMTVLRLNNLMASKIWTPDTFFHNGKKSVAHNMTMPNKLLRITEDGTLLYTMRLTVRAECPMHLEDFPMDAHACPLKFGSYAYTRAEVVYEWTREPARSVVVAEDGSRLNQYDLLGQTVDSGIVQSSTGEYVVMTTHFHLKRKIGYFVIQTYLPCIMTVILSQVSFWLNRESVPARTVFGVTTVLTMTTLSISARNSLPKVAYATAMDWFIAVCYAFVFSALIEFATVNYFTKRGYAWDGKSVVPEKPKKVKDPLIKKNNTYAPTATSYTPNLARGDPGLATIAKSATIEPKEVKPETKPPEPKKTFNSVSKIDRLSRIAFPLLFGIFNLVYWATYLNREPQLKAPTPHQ
Gamma-aminobutyric acid receptor subunit alpha-1/alpha-2/beta-2/gamma-2, sequence (P47870 whole entry): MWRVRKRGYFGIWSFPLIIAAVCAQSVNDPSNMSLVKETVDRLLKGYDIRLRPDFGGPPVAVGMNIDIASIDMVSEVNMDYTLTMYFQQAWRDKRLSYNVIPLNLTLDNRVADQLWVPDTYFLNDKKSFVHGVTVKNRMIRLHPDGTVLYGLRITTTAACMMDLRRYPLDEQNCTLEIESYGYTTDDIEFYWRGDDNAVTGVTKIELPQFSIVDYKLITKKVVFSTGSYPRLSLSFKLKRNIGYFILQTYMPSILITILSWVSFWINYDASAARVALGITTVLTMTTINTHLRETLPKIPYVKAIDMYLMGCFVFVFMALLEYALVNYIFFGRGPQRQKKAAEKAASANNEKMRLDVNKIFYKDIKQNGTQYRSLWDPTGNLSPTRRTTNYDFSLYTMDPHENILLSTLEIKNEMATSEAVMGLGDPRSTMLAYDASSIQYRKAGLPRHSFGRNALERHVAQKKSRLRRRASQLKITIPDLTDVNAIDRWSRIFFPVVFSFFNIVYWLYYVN
Gamma-aminobutyric acid receptor subunit alpha-1/alpha-2/beta-2/gamma-2, sequence (P18507 whole entry): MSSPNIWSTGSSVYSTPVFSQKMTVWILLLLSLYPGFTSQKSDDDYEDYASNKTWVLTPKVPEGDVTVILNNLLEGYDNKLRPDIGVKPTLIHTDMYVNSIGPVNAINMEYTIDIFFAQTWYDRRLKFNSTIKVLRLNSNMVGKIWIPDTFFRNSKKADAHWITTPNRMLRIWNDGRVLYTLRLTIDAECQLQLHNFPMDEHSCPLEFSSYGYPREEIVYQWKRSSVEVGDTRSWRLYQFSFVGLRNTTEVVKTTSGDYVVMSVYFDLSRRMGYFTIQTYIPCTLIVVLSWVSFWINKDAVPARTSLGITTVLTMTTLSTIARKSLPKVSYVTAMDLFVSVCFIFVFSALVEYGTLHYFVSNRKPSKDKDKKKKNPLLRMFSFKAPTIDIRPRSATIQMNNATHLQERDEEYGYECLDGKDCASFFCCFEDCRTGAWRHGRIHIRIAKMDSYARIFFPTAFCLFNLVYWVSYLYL
Gamma-aminobutyric acid receptor subunit alpha-1/alpha-2/beta-2/gamma-2, sequence (P47869 whole entry): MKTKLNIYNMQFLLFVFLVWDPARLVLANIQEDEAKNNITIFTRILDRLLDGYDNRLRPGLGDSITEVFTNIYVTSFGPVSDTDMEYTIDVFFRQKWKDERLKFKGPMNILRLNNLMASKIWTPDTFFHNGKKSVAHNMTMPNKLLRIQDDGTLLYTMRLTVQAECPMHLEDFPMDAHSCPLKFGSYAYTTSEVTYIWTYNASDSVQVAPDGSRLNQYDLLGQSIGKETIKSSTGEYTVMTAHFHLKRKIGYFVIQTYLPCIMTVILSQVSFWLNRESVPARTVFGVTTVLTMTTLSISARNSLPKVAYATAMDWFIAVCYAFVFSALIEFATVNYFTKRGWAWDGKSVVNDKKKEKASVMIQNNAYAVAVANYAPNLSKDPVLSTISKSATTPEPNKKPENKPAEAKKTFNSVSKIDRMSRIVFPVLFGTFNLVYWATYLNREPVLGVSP
5-hydroxytryptamine receptor 2B, sequence (P41595 whole entry): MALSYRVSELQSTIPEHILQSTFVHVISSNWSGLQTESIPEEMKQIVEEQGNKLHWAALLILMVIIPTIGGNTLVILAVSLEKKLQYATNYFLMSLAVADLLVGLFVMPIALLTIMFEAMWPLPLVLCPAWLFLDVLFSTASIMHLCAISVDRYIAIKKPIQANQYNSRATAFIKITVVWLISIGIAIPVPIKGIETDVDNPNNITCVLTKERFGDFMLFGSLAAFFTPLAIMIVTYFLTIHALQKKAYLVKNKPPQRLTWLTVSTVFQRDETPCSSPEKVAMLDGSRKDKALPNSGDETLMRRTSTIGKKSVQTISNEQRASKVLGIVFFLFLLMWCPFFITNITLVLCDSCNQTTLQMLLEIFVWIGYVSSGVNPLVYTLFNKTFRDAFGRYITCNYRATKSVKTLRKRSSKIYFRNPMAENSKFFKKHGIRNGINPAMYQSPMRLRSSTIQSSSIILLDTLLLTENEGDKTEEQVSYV
D(1A) dopamine receptor, sequence (P21728 whole entry): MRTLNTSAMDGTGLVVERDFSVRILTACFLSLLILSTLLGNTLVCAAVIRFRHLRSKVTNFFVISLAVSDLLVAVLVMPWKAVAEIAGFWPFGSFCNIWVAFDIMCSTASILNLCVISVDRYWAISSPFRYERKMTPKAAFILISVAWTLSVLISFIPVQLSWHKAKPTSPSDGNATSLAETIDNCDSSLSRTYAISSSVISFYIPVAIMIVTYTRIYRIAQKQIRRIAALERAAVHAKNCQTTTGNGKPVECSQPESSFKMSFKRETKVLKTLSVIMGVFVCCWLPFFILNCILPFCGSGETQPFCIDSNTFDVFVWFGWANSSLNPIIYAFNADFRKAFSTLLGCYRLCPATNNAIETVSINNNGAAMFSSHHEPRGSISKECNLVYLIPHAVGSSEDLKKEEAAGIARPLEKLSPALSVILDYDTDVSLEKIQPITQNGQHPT

Compound: CSCC[C@H](N)C(=O)O [METHIONINE]
- AC50 [1]: > 30 µM

Compound: C[C@@H]1CN(c2c(F)c(N)c3c(=O)c(C(=O)O)cn(C4CC4)c3c2F)C[C@H](C)N1 [SPARFLOXACIN]
- AC50 [2]: > 50 µM

- AC50 [3]: > 30 µM
- AC50 [4]: > 30 µM
Compound: CC(C)(Oc1ccc(Cl)cc1)C(=O)OCCOC(=O)c1cccnc1 [ETOFIBRATE]

Compound: N=C(N)NC(=O)c1nc(Cl)c(N)nc1N [AMILORIDE]
- AC50 [5]: > 10 µM
- AC50 [6]: > 30 µM
- AC50 [7]: > 10 µM
- AC50 [8]: 5.63 µM
- AC50 [9]: > 10 µM
- AC50 (D(1A) dopamine receptor): > 10 µM

Compound: C[C@@H](O)[C@H]1C(=O)N2C(C(=O)O)=C(S[C@@H]3CN[C@H](C(=O)Nc4cccc(C(=O)O)c4)C3)[C@H](C)[C@H]12
- AC50 [1]: > 30 µM

- AC50 [8]: > 30 µM
Compound: C[C@]12CCC(=O)C=C1[C@@H]1C[C@@H]1[C@H]1[C@@H]3[C@@H]4C[C@@H]4[C@@]4(CCC(=O)O4)[C@@]3(C)CC[C@@H]12 [DROSPIRENONE]

- AC50 [6]: > 30 µM
- AC50 [7]: > 10 µM
- AC50 [9]: > 10 µM
Compound: C[C@]12C=CC(=O)C=C1CC[C@@H]1[C@@H]2[C@@H](O)C[C@@]2(C)[C@H]1CC[C@]2(O)C(=O)CO [PREDNISOLONE]

Compound: Cc1ccc(O)c([C@H](CCN(C(C)C)C(C)C)c2ccccc2)c1 [TOLTERODINE]
- AC50 [5]: > 10 µM
- AC50 [6]: > 30 µM
- AC50 [8]: > 10 µM
- AC50 [9]: > 10 µM
- AC50 (D(1A) dopamine receptor): > 10 µM

Compound: COc1cccc2c1C(=O)c1c(O)c3c(c(O)c1C2=O)C[C@@](O)(C(=O)CO)C[C@@H]3O[C@H]1C[C@H](N)[C@H](O)[C@H](C)O1 [DOXORUBICIN]
- AC50 [3]: > 30 µM
- AC50 [4]: > 10 µM
- AC50 [5]: > 10 µM
- AC50 [9]: > 10 µM
- AC50 [2]: > 50 µM

Compound: CC(C)(C)NCC(O)COc1ccccc1C#N (stereo not given) [BUNITROLOL]
- AC50 [10]: > 30 µM

Compound: CC(=O)Nc1ccc(/C=N/NC(N)=S)cc1 [AMITHIOZONE]
- AC50 [1]: > 30 µM

- AC50 [3]: > 30 µM
- AC50 (Histamine H1 receptor [11]): > 30 µM
- AC50 [4]: > 30 µM
- AC50 (Histamine H1 receptor [12]): > 30 µM
Compound: C[C@]12C=CC(=O)C=C1C(Cl)=C[C@@H]1[C@@H]2[C@@H](O)C[C@@]2(C)[C@H]1CC[C@]2(O)C(=O)CO [CLOPREDNOL]

- AC50 [7]: 0.265 µM
Compound: CCC(=O)c1ccc2c(c1)N(CC(C)N(C)C)c1ccccc1S2 (stereo not given) [PROPIOMAZINE]

Compound: COc1ccc(C(=O)c2ccccc2)c(O)c1 [OXYBENZONE]
- AC50 [10]: > 30 µM

Compound: Oc1cc(Cl)ccc1Oc1ccc(Cl)cc1Cl [TRICLOSAN]
- AC50 (Histamine H1 receptor [11]): > 30 µM
- AC50 [10]: > 30 µM
- AC50 (Histamine H1 receptor [12]): > 30 µM

Compound: OC(CN1CCCCC1)c1cc(-c2ccccc2)on1 (stereo not given) [PERISOXAL]
- AC50 [1]: 3.86 µM

Compound: CCn1c(=O)c2c(nc(/C=C/c3ccc(OC)c(OC)c3)n2C)n(CC)c1=O [ISTRADEFYLLINE]
- AC50 (Histamine H1 receptor [11]): > 30 µM
- AC50 (Histamine H1 receptor [12]): > 30 µM

Compound: CC(=O)OC1CN2CCC1CC2 (stereo not given) [ACECLIDINE]
- AC50 [1]: > 30 µM
